Laboratory results published in ChEMBL document CHEMBL5346877, “A-ring-fused pyrazoles of dihydrotestosterone targeting prostate cancer cells via the downregulation of the androgen receptor” (Eur J Med Chem, 2023).
Calls of active or inactive are those of the source. The calls are words filed in the database; no cut-off is given here.

What was measured:
LAPC4 [1] = assay: Reversal of AR degradation in human LAPC4 cells at 10 to 20 uM preincubated for 1 hr followed by bav-degalutamide addition and measured after 4 hrs; type: functional, cell-based; settings: dose 10-20 µM, time 5.0 hrs
[2] = biological target: T1, Androgen receptor (Homo sapiens) (UniProt P10275); assay: Antagonist activity at AR in human LNCaP cells assessed as reduction in PSA expression at 2 to 10 uM incubated for 72 hrs by Western blotting analysis; type: cell-based; design: scale not given: the % may be the effect or the level left; settings: filed as antagonist, dose 2-10 µM
T1 sequence (whole entry): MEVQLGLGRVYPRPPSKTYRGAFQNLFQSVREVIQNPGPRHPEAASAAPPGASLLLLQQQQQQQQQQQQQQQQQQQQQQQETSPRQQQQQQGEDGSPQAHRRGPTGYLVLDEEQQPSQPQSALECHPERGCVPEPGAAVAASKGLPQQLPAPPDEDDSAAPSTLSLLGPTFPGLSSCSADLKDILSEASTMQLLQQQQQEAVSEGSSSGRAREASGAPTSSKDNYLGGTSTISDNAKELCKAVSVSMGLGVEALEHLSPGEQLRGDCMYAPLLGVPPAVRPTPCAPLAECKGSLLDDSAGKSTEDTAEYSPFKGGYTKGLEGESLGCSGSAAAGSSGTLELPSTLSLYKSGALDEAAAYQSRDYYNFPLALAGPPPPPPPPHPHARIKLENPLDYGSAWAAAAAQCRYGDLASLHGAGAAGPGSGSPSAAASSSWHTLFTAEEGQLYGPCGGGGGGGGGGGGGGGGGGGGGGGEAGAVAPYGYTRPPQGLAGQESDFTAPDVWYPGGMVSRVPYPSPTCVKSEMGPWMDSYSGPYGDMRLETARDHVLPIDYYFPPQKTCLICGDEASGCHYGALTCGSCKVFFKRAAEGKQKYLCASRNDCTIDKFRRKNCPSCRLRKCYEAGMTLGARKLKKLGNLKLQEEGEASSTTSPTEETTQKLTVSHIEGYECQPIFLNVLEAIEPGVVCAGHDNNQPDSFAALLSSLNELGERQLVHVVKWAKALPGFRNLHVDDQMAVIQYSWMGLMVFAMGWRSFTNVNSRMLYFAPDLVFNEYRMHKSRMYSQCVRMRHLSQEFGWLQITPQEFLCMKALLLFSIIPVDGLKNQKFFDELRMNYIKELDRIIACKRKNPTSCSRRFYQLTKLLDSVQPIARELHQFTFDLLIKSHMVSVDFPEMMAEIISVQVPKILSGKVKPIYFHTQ

[3] = biological target: T1, Androgen receptor (Homo sapiens); assay: Antagonist activity at AR in human LAPC4 cells incubated for 24 hrs in presence of R1881 by Western blotting analysis; type: cell-based; settings: filed as antagonist, dose 1.25-10 µM
[4] = biological target: T1, Androgen receptor (Homo sapiens); assay: Antagonist activity at AR in human LAPC4 cells assessed as reduction in PSA expression at 10 uM incubated for 24 hrs in presence of R1881 by Western blotting analysis; type: cell-based; settings: filed as antagonist
CWR22R [5] = assay: Cytotoxicity against human 22Rv1 cells assessed as cell viability at 20 uM incubated for 72 hrs by resazurin dye based microplate reader assay; type: functional; settings: read-out: Activity
[6] = biological target: T1, Androgen receptor (Homo sapiens); assay: Antagonist activity at AR transcription in human LAPC4 cells assessed as reduction in PSA mRNA expression at 10 uM incubated for 24 hrs in presence of R1881 by qPCR analysis; type: cell-based; settings: filed as antagonist
CWR22R [7] = assay: Induction of cell cycle arrest in human 22Rv1 cells assessed as reduction S phase cells incubated for 48 hrs; type: functional, cell-based
LAPC4 [8] = assay: Cytotoxicity against human LAPC4 cells assessed as cell viability at 20 uM incubated for 72 hrs by resazurin dye based microplate reader assay; type: functional; settings: read-out: Activity
[9] = biological target: T1, Androgen receptor (Homo sapiens); assay: Binding affinity to His6 tagged recombinant human AR LBD expresssed in Escherichia coli BL21(DE3) cells by MST assay; settings: filed as antagonist
[10] = biological target: T1, Androgen receptor (Homo sapiens); assay: Antagonist activity at AR in human LNCaP cells incubated for 24 hrs in presence of R1881 by Western blotting analysis; type: cell-based; settings: filed as antagonist
LAPC4 [11] = assay: Induction of cell cycle arrest in human LAPC4 cells assessed as reduction S phase cells incubated for 48 hrs; type: functional, cell-based
[12] = biological target: T1, Androgen receptor (Homo sapiens); assay: Antagonist activity at AR transcription in human LAPC4 cells assessed as reduction in AR mRNA expression at 10 uM incubated for 24 hrs in presence of R1881 by qPCR analysis; type: cell-based; settings: filed as antagonist
DU-145 [13] = assay: Induction of cell cycle arrest in human DU-145 cells assessed as reduction S phase cells incubated for 48 hrs; type: functional, cell-based
LAPC4 [14] = assay: Antiproliferative activity against human LAPC4 cells assessed as viable cells at 2 to 10 uM incubated for 24 to 48 hrs by resazurin dye based assay; type: functional; settings: dose 2-10 µM, time 24-48 hrs
[15] = biological target: T1, Androgen receptor (Homo sapiens); assay: Antagonist activity at AR in human LAPC4 cells assessed as reduction in Nkx3.1 expression at 10 uM incubated for 24 hrs in presence of R1881 by Western blotting analysis; type: cell-based; settings: filed as antagonist
LAPC4 [16] = assay: Antiproliferative activity against human LAPC4 cells; type: functional; settings: time 72 hrs
[17] = biological target: T1, Androgen receptor (Homo sapiens); assay: Antagonist activity at AR in human 22Rv1 cells incubated for 24 hrs in presence of R1881 by Western blotting analysis; type: cell-based; settings: filed as antagonist
LAPC4 [18] = assay: Inhibition of colony formation in human LAPC4 cells at 5 uM incubated for 10 days by crystal violet staining based assay; type: functional, cell-based; settings: time 10.0 day
[19] = biological target: T1, Androgen receptor (Homo sapiens); assay: Antagonist activity at AR in human LNCaP cells assessed as reduction in Nkx3.1 expression at 2 to 10 uM incubated for 72 hrs by Western blotting analysis; type: cell-based; design: scale not given: the % may be the effect or the level left; settings: filed as antagonist, dose 2-10 µM
[20] = biological target: T1, Androgen receptor (Homo sapiens); assay: Antagonist activity at AR in human LNCaP-abl cells assessed as reduction in PSA expression at 10 uM incubated for 24 hrs in presence of R1881 by Western blotting analysis; type: cell-based; settings: filed as antagonist
LAPC4 [21] = assay: Antiproliferative activity against human LAPC4 cells assessed as decrease in […] at 2 to 10 uM incubated for 24 to 72 hrs by resazurin dye based assay; type: functional, cell-based; settings: dose 2-10 µM, time 24-72 hrs
LAPC4 [22] = assay: Induction of apoptosis in human LAPC4 cells assessed as cleaved caspase-3 expression at 2 to 10 uM incubated for 48 to 72 hrs; type: functional, cell-based; settings: dose 2-10 µM, time 48-72 hrs
LAPC4 [23] = assay: Induction of apoptosis in human LAPC4 cells assessed as cleaved caspase-7 expression at 2 to 10 uM incubated for 48 to 72 hrs; type: functional, cell-based; settings: dose 2-10 µM, time 48-72 hrs
Androgen receptor = biological target: T2, Androgen receptor (Homo sapiens, UniProt P10275); assay: Antagonist activity at AR transcription in human 22Rv1 cells incubated for 24 hrs in presence of R1881; type: cell-based
T2 sequence (P10275 whole entry): T1 sequence (whole entry)

LAPC4 [24] = assay: Induction of apoptosis in human LAPC4 cells assessed as PARP-1 expression at 2 to 10 uM incubated for 48 to 72 hrs; type: functional, cell-based; settings: dose 2-10 µM, time 48-72 hrs
[25] = biological target: T1, Androgen receptor (Homo sapiens); assay: Antagonist activity at AR transcription in human 22Rv1 cells assessed as reduction in PSA mRNA expression at 10 uM incubated for 24 hrs in presence of R1881 by qPCR analysis; type: cell-based; settings: filed as antagonist
DU-145 [26] = assay: Cytotoxicity against human DU-145 cells assessed as cell viability at 20 uM incubated for 72 hrs by resazurin dye based microplate reader assay; type: functional; settings: read-out: Activity
[27] = biological target: T1, Androgen receptor (Homo sapiens); assay: Antagonist activity at AR in human LNCaP-abl cells assessed as reduction in phosphorylation at S81 at 10 uM incubated for 24 hrs in presence of R1881 by Western blotting analysis; type: cell-based; settings: filed as antagonist
LAPC4 [28] = assay: Inhibition of colony formation in human LAPC4 cells at 10 uM incubated for 10 days by crystal violet staining based assay; type: functional; settings: LAPC4, 240 h, time 10 day

Cc1c2c(nn1-c1ccc(F)cc1)C[C@@H]1CC[C@@H]3[C@H](CC[C@]4(C)[C@@H](O)CC[C@@H]34)[C@@]1(C)C2
Activity (LAPC4 [1]): Active
Activity [2]: 100%
Activity [3]: Dose-Dependent Effect
Activity [4]: Active
viability at 20 µM (CWR22R [5]): 26%
Activity [6]: Active
Activity (CWR22R [7]): Active
viability at 20 µM (LAPC4 [8]): 38%
Activity [9]: Active
Activity [10]: Dose-Dependent Effect
Activity (LAPC4 [11]): Active
Activity [12]: Active
Activity (DU-145 [13]): inactive
Activity (LAPC4 [14]): >80%
Activity [15]: Active
GI50 (LAPC4 [16]): 7.9 µM
Activity [17]: Dose-Dependent Effect
inhibition (LAPC4 [18]): Active
Activity [19]: 100%
Activity [20]: Active
Activity (LAPC4 [21]): Active
Activity (LAPC4 [22]): Active
Activity (LAPC4 [23]): Active
IC50 (Androgen receptor): 1.18 µM
Activity (LAPC4 [24]): Active
Activity [25]: Active
viability at 20 µM (DU-145 [26]): ≥ 100%
Activity [27]: Active
inhibition at 10 µM (LAPC4 [28]): 3%
